Data from US20240000872A1, “NOVEL BACTERIOPHAGE THAT LYSES ACINETOBACTER GENUS BACTERIA HAVING RESISTANCE TO ANTIBIOTICS” (priority 2020, published 2024).

Test system: Acinetobacter baumannii strains
Experiment: Antibiotic susceptibility test (CLSI disk diffusion test method, read per CLSI 2016)
Assay type: cell-based
Procedure: (§1) Strain identification was performed using a kit such as AT 32 GN system (bioMérieux, Marcy l'Etoile, France). […] In Table 2 below, S, I, and R are the results obtained by evaluating susceptibility to the antibacterial agents, in which ‘S’ means susceptible, ‘I’ means intermediate, and ‘R’ means resistant.
as §1, with “as ATB” for “as AT”, “system (bioMédrieux,” for “system (bioMérieux,”, “Table 6” for “Table 2”
as §1, with “as ATB” for “as AT”, “Table 10” for “Table 2”, “susceptible, T” for “susceptible, ‘I’”

C[C@@H](O)[C@H]1C(=O)N2C(C(=O)O)=C(S[C@@H]3CN[C@H](C(=O)N(C)C)C3)[C@H](C)[C@H]12 [Meropenem, meropenem]
R: antibiotic susceptibility class (host strain YMC14/01/C29) | antibiotic susceptibility class (host strain YMC14/01/IP122) | antibiotic susceptibility class (host strain YMC14/01/L8) | antibiotic susceptibility class (host strain YMC14/01/P31) | antibiotic susceptibility class (host strain YMC14/01/P117) | antibiotic susceptibility class (host strain YMC14/01/P224) | antibiotic susceptibility class (host strain YMC14/01/P727) | antibiotic susceptibility class (host strain YMC14/01/P728) | antibiotic susceptibility class (host strain YMC14/01/R130) | antibiotic susceptibility class (host strain YMC14/01/R160) | antibiotic susceptibility class (host strain YMC14/01/R198) | antibiotic susceptibility class (host strain YMC14/01/R257) | antibiotic susceptibility class (host strain YMC14/01/R270) | antibiotic susceptibility class (host strain YMC14/01/R324) | antibiotic susceptibility class (host strain YMC14/01/R443) | antibiotic susceptibility class (host strain YMC14/01/R451) | antibiotic susceptibility class (host strain YMC14/01/R560) | antibiotic susceptibility class (host strain YMC14/01/R617) | antibiotic susceptibility class (host strain YMC14/01/R671) | antibiotic susceptibility class (host strain YMC14/01/R732) | antibiotic susceptibility class (host strain YMC14/01/R767) | antibiotic susceptibility class (host strain YMC14/01/R904) | antibiotic susceptibility class (host strain YMC14/01/R905) | antibiotic susceptibility class (host strain YMC14/01/R921) | antibiotic susceptibility class (host strain YMC14/01/R941) | antibiotic susceptibility class (host strain YMC14/01/R958) | antibiotic susceptibility class (host strain YMC14/01/R1006) | antibiotic susceptibility class (host strain YMC14/01/R1199) | antibiotic susceptibility class (host strain YMC14/01/R1659) | antibiotic susceptibility class (host strain YMC14/01/R1722) | antibiotic susceptibility class (host strain YMC14/01/R1752) | antibiotic susceptibility class (host strain YMC14/01/R2429) | antibiotic susceptibility class (host strain YMC14/01/R2572) | antibiotic susceptibility class (host strain YMC14/01/R2855) | antibiotic susceptibility class (host strain YMC14/01/R2945) | antibiotic susceptibility class (host strain YMC14/01/R3007) | antibiotic susceptibility class (host strain YMC14/01/R3129) | antibiotic susceptibility class (host strain YMC14/01/R3317) | antibiotic susceptibility class (host strain YMC14/01/R3474) | antibiotic susceptibility class (host strain YMC14/01/R3574) | antibiotic susceptibility class (host strain YMC14/01/U313) | antibiotic susceptibility class (host strain YMC14/01/U318) | antibiotic susceptibility class (host strain YMC14/02/L18) | antibiotic susceptibility class (host strain YMC14/02/P47) | antibiotic susceptibility class (host strain YMC14/02/R1860) | antibiotic susceptibility class (host strain YMC14/02/R2417) | antibiotic susceptibility class (host strain YMC14/02/R2599) | antibiotic susceptibility class (host strain YMC14/02/R2668) | antibiotic susceptibility class (host strain YMC14/02/R2758) | antibiotic susceptibility class (host strain YMC14/02/R2781) | antibiotic susceptibility class (host strain YMC14/02/R3106) | antibiotic susceptibility class (host strain YMC14/02/R3419) | antibiotic susceptibility class (host strain YMC14/02/U1607) | antibiotic susceptibility class (host strain YMC14/03/L9) | antibiotic susceptibility class (host strain YMC14/03/P471) | antibiotic susceptibility class (host strain YMC14/03/R122) | antibiotic susceptibility class (host strain YMC14/03/R217) | antibiotic susceptibility class (host strain YMC14/03/R380) | antibiotic susceptibility class (host strain YMC14/03/R618) | antibiotic susceptibility class (host strain YMC14/03/R2144) | antibiotic susceptibility class (host strain YMC14/03/U4616) | antibiotic susceptibility class (host strain YMC14/04/R1078) | antibiotic susceptibility class (host strain YMC14/04/R1080) | antibiotic susceptibility S/I/R (host strain YMC14/06/R2359) | susceptibility category (S/I/R) (host strain YMC14/06/R2359) | antibiotic susceptibility S/I/R (host strain YMC14/08/R1169) | susceptibility category (S/I/R) (host strain YMC14/08/R1169) | antibiotic susceptibility S/I/R (host strain YMC14/08/T90) | susceptibility category (S/I/R) (host strain YMC14/08/T90) | antibiotic susceptibility S/I/R (host strain YMC15/02/R436) | susceptibility category (S/I/R) (host strain YMC15/02/R436) | antibiotic susceptibility S/I/R (host strain YMC15/02/T28) | susceptibility category (S/I/R) (host strain YMC15/02/T28) | antibiotic susceptibility S/I/R (host strain YMC15/03/R1604) | susceptibility category (S/I/R) (host strain YMC15/03/R1604) | antibiotic susceptibility S/I/R (host strain YMC15/09/R1869) | susceptibility category (S/I/R) (host strain YMC15/09/R1869) | antibiotic susceptibility S/I/R (host strain YMC16/01/P11) | susceptibility category (S/I/R) (host strain YMC16/01/P11) | antibiotic susceptibility S/I/R (host strain YMC16/01/R123) | susceptibility category (S/I/R) (host strain YMC16/01/R123) | antibiotic susceptibility S/I/R (host strain YMC16/01/R198) | susceptibility category (S/I/R) (host strain YMC16/01/R198)
